Here are results for two molecules from PMC7815742 (Nature Communications, 2021).

The target of one series is T1, (UniProt A0A3A0FWV3).
T1 construct: GenBank RIL07334.1, purified wild type
Briefly: in vitro [3H]-progesterone reduction assay with purified enzyme, HPLC radiodetection. In kind it is biochemical, Pseudomonadota bacterium.

Series [1] concerns the molecule itself. Put plainly: AUC; sedimentation velocity, 20 °C, 25 mM HEPES pH 7.5, 150 mM NaCl, 5% glycerol, 0.02% DDM, 5 mM DTT; masses calculated with SEDFIT and GUSSI.

T1 sequence (A0A3A0FWV3 1-253 limits assumed): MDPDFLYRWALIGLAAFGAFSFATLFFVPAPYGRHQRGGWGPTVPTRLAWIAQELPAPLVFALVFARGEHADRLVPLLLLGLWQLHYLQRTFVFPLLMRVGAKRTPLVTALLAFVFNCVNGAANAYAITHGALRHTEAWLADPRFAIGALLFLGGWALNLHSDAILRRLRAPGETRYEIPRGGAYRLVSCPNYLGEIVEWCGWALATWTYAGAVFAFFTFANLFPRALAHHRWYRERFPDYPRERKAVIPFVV

For the molecule `C[C@]12C=CC(=O)N[C@@H]1CC[C@@H]1[C@@H]2CC[C@]2(C)[C@@H](C(=O)Nc3cc(C(F)(F)F)ccc3C(F)(F)F)CC[C@@H]12` [Duta, dutasteride], inhibition against (UniProt A0A3A0FWV3) was half-maximal at 1590 ± 190 nM (IC50).

B1: mycobacterial homolog of Insig protein (MvINS) (natural protein)
chain: MRLRISEAVVLFLLGAVAALIGDHSHVVTGTTVYHTDAVPFVWSSPFWFPILVGAATASLAELRLHLPAPRDGVTARQALGGVAAVVGTYVTTALVHAFPVVPVTALVCAAAAITWCVLGDGPGAACGVVIAVIGPAVEIALVQLGVFAYHPDSDGLFGVAPFLAPLYFAFGVVAALLGELAVARRPQLGPPVCDTVSRGPGAG
notes: mycobacterial homolog of Insig, MvINS; PDB 4XU4; theoretical protomer mass 23.6 kDa
Regarding B1, the “stoichiometry N” value in series [1] is 3.

One may read the IC50 as the concentration at which inhibition is half-maximal. As usually defined, the stoichiometry N is a count of units in the complex or per binding partner.
